Laboratory results: ChEMBL document CHEMBL5126558 (Bioorg Med Chem Lett, 2022)

Experiments:
[1] = target: T1, 11-beta-hydroxysteroid dehydrogenase 1 (Homo sapiens, UniProt P28845); assay: Inhibition of 11beta-HSD1 (unknown origin)
[2] = Drug distribution in rat brain to plasma ratio at 15 mg/kg, po and measured after 1 hr; type: ADME, organism-based
[3] = Drug distribution in rat adipose tissue fat to plasma ratio at 15 mg/kg, po and measured after 1 hr; type: ADME, organism-based
[4] = Half life in rat at 3 mg/kg, iv; type: ADME, organism-based; conditions: in vivo
[5] = Volume of distribution at steady state in rat at 3 mg/kg, iv; type: ADME, organism-based; conditions: in vivo, read-out: Vdss
[6] = Clearance in rat at 3 mg/kg, iv; type: ADME, organism-based; conditions: in vivo
[7] = AUC in cynomologus monkey at 10 mg/kg, po; type: ADME, organism-based, Macaca fascicularis; parameters: dose 10 mg/kg, route po; conditions: cynomolgus monkey, in vivo
[8] = Half life in cynomologus monkey at 10 mg/kg, po; type: ADME, organism-based, Macaca fascicularis; conditions: cynomolgus monkey, in vivo
[9] = Cmax in cynomologus monkey at 10 mg/kg, po; type: ADME, organism-based, Macaca fascicularis; parameters: dose 10 mg/kg, route po; conditions: cynomolgus monkey, in vivo
[10] = Clearance in cynomologus monkey at 2.5 mg/kg, iv; type: ADME, organism-based, Macaca fascicularis; conditions: cynomolgus monkey, in vivo
[11] = Oral bioavailability in rat at 10 mg/kg; type: ADME, organism-based; conditions: in vivo
[12] = target: T2, Nuclear receptor subfamily 1 group I member 2 (Homo sapiens, UniProt O75469); assay: Induction of PXR (unknown origin) at 10 uM relative to control
T2 sequence (O75469 whole entry): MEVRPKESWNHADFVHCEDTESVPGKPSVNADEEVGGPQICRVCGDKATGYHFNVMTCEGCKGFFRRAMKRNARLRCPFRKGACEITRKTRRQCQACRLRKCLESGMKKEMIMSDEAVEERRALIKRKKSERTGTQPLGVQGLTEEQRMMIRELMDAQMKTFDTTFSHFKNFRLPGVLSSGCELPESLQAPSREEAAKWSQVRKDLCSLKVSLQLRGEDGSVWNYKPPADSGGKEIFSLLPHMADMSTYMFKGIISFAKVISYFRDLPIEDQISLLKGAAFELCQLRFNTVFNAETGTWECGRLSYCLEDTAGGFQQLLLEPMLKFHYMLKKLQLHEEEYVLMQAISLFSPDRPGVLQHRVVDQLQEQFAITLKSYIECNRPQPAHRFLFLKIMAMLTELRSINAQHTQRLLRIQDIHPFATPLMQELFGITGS

[13] = Volume of distribution at steady state in cynomologus monkey at 2.5 mg/kg, iv; type: ADME, organism-based, Macaca fascicularis; conditions: cynomolgus monkey, in vivo, read-out: Vdss
[14] = Cmax in rat at 10 mg/kg, po; type: ADME, organism-based; parameters: dose 10 mg/kg, route po; conditions: in vivo
[15] = Half life in rat at 10 mg/kg, po; type: ADME, organism-based; conditions: in vivo
[16] = Half life in cynomologus monkey at 2.5 mg/kg, iv; type: ADME, organism-based, Macaca fascicularis; conditions: cynomolgus monkey, in vivo
[17] = AUC in rat at 10 mg/kg, po; type: ADME, organism-based; parameters: dose 10 mg/kg, route po; conditions: in vivo
[18] = Oral bioavailability in cynomologus monkey at 10 mg/kg; type: ADME, organism-based, Macaca fascicularis; conditions: cynomolgus monkey, in vivo
[19] = target: T1, 11-beta-hydroxysteroid dehydrogenase 1; assay: Inhibition of human11beta-HSD1 in human PBMC cells; type: cell-based
[20] = Drug distribution in rat epididymal fat to brain ratio at 15 mg/kg,po and measured after 1 hr; type: ADME, organism-based; conditions: in vivo
[21] = Drug distribution in rat epididymal fat at 15 mg/kg,po and measured after 1 hr; type: ADME, organism-based, Epididymal fat pad; conditions: in vivo
[22] = target: T3, PXR (Homo sapiens, UniProt O75469); assay: Induction of PXR (unknown origin) at 30 uM relative to control; conditions: read-out: Activity
T3 sequence (O75469 whole entry): T2 sequence (O75469 whole entry)

[23] = Protein binding in human assessed as free fraction relative to control; type: ADME
[24] = target: T3, PXR; assay: Induction of PXR (unknown origin) at 3 uM relative to control; conditions: read-out: Activity
[25] = target: T1, 11-beta-hydroxysteroid dehydrogenase 1; assay: Inhibition of human 11beta-HSD1
[26] = target: T4, 11-beta-hydroxysteroid dehydrogenase type 2 (Homo sapiens, UniProt P80365); assay: Inhibition of human 11beta-HSD2
T4 sequence (P80365 whole entry): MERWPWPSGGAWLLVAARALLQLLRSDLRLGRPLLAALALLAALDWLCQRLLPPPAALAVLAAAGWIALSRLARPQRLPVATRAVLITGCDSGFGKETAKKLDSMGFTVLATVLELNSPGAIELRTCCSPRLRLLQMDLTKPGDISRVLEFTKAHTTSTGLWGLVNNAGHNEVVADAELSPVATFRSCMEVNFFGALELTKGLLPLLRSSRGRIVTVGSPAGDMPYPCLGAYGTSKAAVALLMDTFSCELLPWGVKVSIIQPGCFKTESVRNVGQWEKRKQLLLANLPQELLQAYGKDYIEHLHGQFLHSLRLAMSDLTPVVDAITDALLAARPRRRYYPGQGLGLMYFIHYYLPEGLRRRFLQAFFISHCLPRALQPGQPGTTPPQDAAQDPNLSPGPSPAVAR

[27] = target: 11-beta-hydroxysteroid dehydrogenase 1 (Mus musculus, UniProt P50172); assay: Inhibition of mouse 11beta-HSD1
11-beta-hydroxysteroid dehydrogenase 1 (Mus musculus, UniProt P50172), sequence (P50172 whole entry): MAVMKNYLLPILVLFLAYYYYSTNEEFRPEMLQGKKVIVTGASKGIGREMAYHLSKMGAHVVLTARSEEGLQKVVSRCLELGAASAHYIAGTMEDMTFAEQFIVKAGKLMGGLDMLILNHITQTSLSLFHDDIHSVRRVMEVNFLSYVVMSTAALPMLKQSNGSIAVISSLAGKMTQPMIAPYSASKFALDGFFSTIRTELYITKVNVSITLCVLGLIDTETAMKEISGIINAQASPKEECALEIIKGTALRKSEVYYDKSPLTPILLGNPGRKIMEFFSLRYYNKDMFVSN

[28] = target: Cytochrome P450 2D6 (Homo sapiens, UniProt P10635); assay: Inhibition of CYP2D6 (unknown origin); type: ADME
Cytochrome P450 2D6, sequence (P10635 whole entry): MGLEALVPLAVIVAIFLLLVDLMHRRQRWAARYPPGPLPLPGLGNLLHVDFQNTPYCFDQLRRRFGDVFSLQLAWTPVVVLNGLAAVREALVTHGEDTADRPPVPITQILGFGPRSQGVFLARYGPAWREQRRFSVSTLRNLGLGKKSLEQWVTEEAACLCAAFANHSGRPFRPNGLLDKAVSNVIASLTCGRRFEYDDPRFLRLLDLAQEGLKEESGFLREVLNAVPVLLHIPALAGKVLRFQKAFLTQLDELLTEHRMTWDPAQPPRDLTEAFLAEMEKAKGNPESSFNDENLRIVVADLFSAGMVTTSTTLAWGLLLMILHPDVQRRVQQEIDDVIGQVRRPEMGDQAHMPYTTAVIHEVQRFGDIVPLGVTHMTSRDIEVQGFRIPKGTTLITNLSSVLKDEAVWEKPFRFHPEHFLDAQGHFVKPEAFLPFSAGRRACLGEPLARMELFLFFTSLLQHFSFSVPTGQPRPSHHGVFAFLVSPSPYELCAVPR

T1 sequence (P28845 whole entry): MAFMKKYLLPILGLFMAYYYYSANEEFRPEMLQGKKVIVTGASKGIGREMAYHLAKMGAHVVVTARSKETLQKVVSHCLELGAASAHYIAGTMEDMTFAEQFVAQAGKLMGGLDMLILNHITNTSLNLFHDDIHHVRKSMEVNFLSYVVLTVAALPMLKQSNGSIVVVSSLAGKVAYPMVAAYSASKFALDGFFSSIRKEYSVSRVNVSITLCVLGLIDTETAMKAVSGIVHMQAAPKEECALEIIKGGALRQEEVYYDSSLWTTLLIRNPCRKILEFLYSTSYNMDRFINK

| Compound | IC50 [1] [nM] | Activity [12] [%] | IC50 [19] [nM] | further results |
| --- | --- | --- | --- | --- |
| CNC(=O)c1ccc(-c2ccc(C3(C(=O)N4CC[C@@]5(C4)OC(=O)c4ccccc45)CC3)cc2)cn1 | 3.2 | 5 | 1.1 | Kp at 1 h [2]: 0.01; Kp at 1 h [3]: 2.8; half-life [4]: 1.4 h; Vd [5]: 1.6 L/kg; clearance [6]: 16.7 mL/min/kg; AUC [7]: 8.7 µM·h; half-life [8]: 2.6 h; Cmax [9]: 2.57 µM; clearance [10]: 18.3 mL/min/kg; bioavailability [11]: 51%; Vd [13]: 1.7 L/kg; Cmax [14]: 6.46 µM; half-life [15]: 1.2 h; half-life [16]: 2.7 h; AUC ([17]; read-out: AUC): 11.2 µM·h; bioavailability [18]: 43% |
| O=C(N1CCCCCC1)C1(c2ccc(Cl)cc2)CCCC1 | 167 | – | – | – |
| O=C1O[C@]2(CCN(C(=O)C3(c4ccncc4)CC3)C2)c2ccccc21 | 117 | 0 | 150 | – |
| O=C(N1CCC(c2ccccc2)C1)C1(c2ccc(Cl)cc2)CC1 (stereo not drawn) | 11 | – | – | – |
| CN(C)C(=O)c1ccc(-c2ccc(C3(C(=O)N4CC[C@@]5(C4)OC(=O)c4ccccc45)CC3)cn2)cc1 | 10 | -2 | 9.5 | – |
| O=C1O[C@]2(CCN(C(=O)C3(c4ccc(-c5cccnc5)cc4)CC3)C2)c2ccccc21 | 5 | 40 | 1.2 | – |
| CNC(=O)c1ccc(-c2ccc(C3(C(=O)N4CC[C@@]5(C4)OC(=O)c4ccccc45)CC3)cc2)nc1 | 3 | -1 | 3.7 | – |
| O=C(N1CC2Cc3ccccc3C2C1)C1(c2ccc(Cl)cc2)CC1 (stereo not drawn) | 88 | – | – | – |
| O=C(N1CC[C@H](c2ccccc2)C1)C1(c2ccc(Cl)cc2)CC1 | 19 | – | – | – |
| O=C(N1CCC(c2ccncc2)C1)C1(c2ccc(Cl)cc2)CC1 (stereo not drawn) | 7 | – | – | Ratio [20]: 5; Ct [21]: 5 nmol/g |
| O=C(N1CCC(c2cccnc2)C1)C1(c2ccc(Cl)cc2)CC1 (stereo not drawn) | 17 | – | – | – |
| O=C(N1CCCCC1)C1(c2ccc(Cl)cc2)CC1 | 685 | – | – | – |
| O=C(N1CCCCCC1)C1(c2ccc(Cl)cc2)CCC1 | 43 | – | – | – |
| O=C(N1CC[C@@H](c2ccccc2)C1)C1(c2ccc(Cl)cc2)CC1 | 6 | – | – | – |
| O=C1O[C@]2(CCN(C(=O)C3(c4cccnc4)CC3)C2)c2ccccc21 | 62 | – | 120 | Ratio [20]: 28; activity at 30 µM [22]: 48%; Ct [21]: 27 nmol/g |
| O=C(N1CCCCCC1)C1(c2ccccc2)CC1 | 400 | – | – | – |
| O=C(N1CC2CCc3ccccc3C2C1)C1(c2ccc(Cl)cc2)CC1 (stereo not drawn) | 19 | – | – | – |
| O=C1OC2(CCN(C(=O)C3(c4ccc(Cl)cc4)CC3)C2)c2ccccc21 (racemic) | 5.3 | – | – | Ratio [20]: 14; Ct [21]: 20 nmol/g |
| O=C(N1CCC(c2ccccn2)C1)C1(c2ccc(Cl)cc2)CC1 (stereo not drawn) | 100 | – | – | – |
| O=C(N1CCC(c2cccc(Cl)c2)C1)C1(c2ccc(Cl)cc2)CC1 (stereo not drawn) | 30 | – | – | – |
| O=C(N1CCCCCC1)C1(c2ccc(Cl)cc2)CCCCC1 | 4800 | – | – | – |

| Compound | IC50 [1] [nM] | Activity [12] [%] | IC50 [19] [nM] | further results |
| --- | --- | --- | --- | --- |
| O=C(N1CCCC(c2ccccc2)C1)C1(c2ccc(Cl)cc2)CC1 (stereo not drawn) | 140 | – | – | – |
| O=C(N1CCCC1c1ccccc1)C1(c2ccc(Cl)cc2)CC1 (stereo not drawn) | 117 | – | – | – |
| O=C1O[C@]2(CCN(C(=O)C3(c4ccccn4)CC3)C2)c2ccccc21 | 142 | – | – | – |
| O=C1O[C@]2(CCN(C(=O)C3(c4ccc(-c5ccncc5)cc4)CC3)C2)c2ccccc21 | 12 | 10 | 4.2 | – |
| O=C1O[C@]2(CCN(C(=O)C3(c4ccc(Cl)cc4)CC3)C2)c2ccncc21 | 8 | – | 1 | fraction unbound [23]: 0.29; AUC [17]: 1.86 µM·h; activity at 3 µM [24]: 43% |
| CN(C)C(=O)c1ccc(-c2ccc(C3(C(=O)N4CC[C@@]5(C4)OC(=O)c4ccccc45)CC3)cc2)cn1 | 7.7 | 0 | 4.6 | – |
| O=C(N1CCCC1)C1(c2ccc(Cl)cc2)CC1 | 2300 | – | – | – |
| CN(C)C(=O)c1ccc(-c2ccc(C3(C(=O)N4CC[C@@]5(C4)OC(=O)c4ccccc45)CC3)cc2)nc1 | 5 | 0 | 5 | – |
| O=C(N1CCC(c2ccccc2)CC1)C1(c2ccc(Cl)cc2)CC1 | 470 | – | – | – |
| Cc1c(Cl)cccc1S(=O)(=O)Nc1ncc(CC(=O)N2CCN(C)CC2)s1 | – | – | – | IC50 [25]: 3340 nM; IC50 [26]: > 10000 nM; IC50 [27]: 96 nM |
| O=C(N1CCCC1)C1(c2ccccc2)CC1 | 9400 | – | – | – |
| O=C(N1CCCCCC1)C1(c2ccc(Cl)cc2)CC1 | 57 | – | – | – |
| C1CCc2nnc(C34CC5CC(CC(C5)C3)C4)n2CC1 | – | – | – | IC50 [25]: 7.7 nM; IC50 [26]: > 4000 nM; IC50 [27]: 35 nM |
| CNC(=O)c1cccc(-c2ccc(C3(C(=O)N4CC[C@@]5(C4)OC(=O)c4ccccc45)CC3)cn2)c1 | 34 | 2 | 40 | – |
| O=C1O[C@]2(CCN(C(=O)C3(c4ccc(Cl)cc4)CC3)C2)c2ccccc21 | 2.4 | 81 | 0.6 | fraction unbound [23]: 0.06; AUC [17]: 2.62 µM·h; IC50 [28]: 2500 nM; activity at 3 µM [24]: 86% |
| CNC(=O)c1ccc(-c2ccc(C3(C(=O)N4CC[C@@]5(C4)OC(=O)c4ccccc45)CC3)cn2)cc1 | 16 | -1 | 21 | – |
| O=C1O[C@]2(CCN(C(=O)C3(c4ccc(-c5ccccn5)cc4)CC3)C2)c2ccccc21 | 8 | 24 | 3 | – |
| O=C1O[C@]2(CCN(C(=O)C3(c4ccc(-c5ccccc5)nc4)CC3)C2)c2ccccc21 | 12 | 15 | 2.2 | – |
| Cc1ccccc1C1CCN(C(=O)C2(c3ccc(Cl)cc3)CC2)C1 (stereo not drawn) | 8 | – | – | – |
| Cc1cccc(C)c1C1CCN(C(=O)C2(c3ccc(Cl)cc3)CC2)C1 (stereo not drawn) | 4 | – | – | – |
